From article PMC7831015, “Evaluation of the Hemocompatibility and Anticancer Potential of Poly(ε-Caprolactone) and Poly(3-Hydroxybutyrate) Microcarriers with Encapsulated Chrysin” (Pharmaceutics, 2021)

What was measured:
Hemolysis assay = assay type: cell-based, human; settings: human, washed human red blood cells (RBC suspension), pH 7.2, 24 h, 37 °C, free chrysin solution in DMSO (5%), read-out: Percentage of Hemolysis
Description: (§1) Human blood samples were freshly collected from ten healthy volunteers and divided into tubes containing the anticoagulant agent ethylenediamine tetraacetic acid (EDTA), according to the protocols approved by the National Institute of Health and the Food and Drug Administration.
(§2) The hemocompatibility of free chrysin and the produced micro-formulations was evaluated via the hemolysis assay performed using a biochemical analyzer Konelab 30, Thermo Scientific. The experimental procedure was as follows: Whole blood samples were centrifuged for 10 min at 1500 rpm to remove plasma. The obtained cell pellets were washed three times with sterile PBS (10 mM, pH 7.2) to separate the red blood cells (RBCs) from other blood components, such as the white blood cells, plasma proteins, and excess antibodies, centrifuged and finally re-suspended at 5 mL PBS. The hemolysis assay was performed by adding 100 µL of the RBC suspension to 900 µL of PBS, containing several concentrations (5, 20, 40, 60, 80, 100, 200, 300, 400, 500 µg·mL^−1) of free chrysin, ChrPCL/PVAMCs, or ChrPHB/PVAMCs. The positive (+) control sample of hemolysis used (100% hemolysis) consisted of 900 µL of ultrapure water and 100 µL of washed RBCs. The negative (−) control sample (0% hemolysis) consisted of 900 µL PBS and 100 µL of washed RBCs. PBS and PBS containing either free chrysin, ChrPCL/PVAMCs, or ChrPHB/PVAMCs were used as blank samples. All samples were incubated for 24 h at 37 °C, under agitation at 120 rpm. After incubation, they were centrifuged at 700 rpm for 5 min, and the absorbance of the supernatant was measured at 541 nm. The % hemolysis was calculated after subtracting the blank values, and by setting the control (+) value as 100% of hemolysis. The absorbance was transformed to hemolysis percentage using the following equation: Percentage of hemolysis (%)=ODSample − ODNegative control/ODPositive control − ODNegative control where OD stands for Optical density.

human RBCs = test: Hemolysis assay; assay type: cell-based
Description: as §1, §2

human blood samples = test: Blood profile analysis (hematological parameters); assay type: cell-based; settings: human blood, 5, 80 and 200 µg·mL^−1, 37 °C, 1 h
Description: as §1
The blood profile analysis was performed using an automatic hematological analyzer Beckman Coulter ACT 5 Diff OV, (Beckman Coulter International S.A., Nyon, Switzerland) for the determination of different hematological parameters, such as red blood cells (RBCs) count ([…]), hemoglobin (HGB) g·dL^−1), hematocrit (HCT) (%), mean corpuscular volume (MCV) (in femtoliters, fl), mean corpuscular hemoglobin (MCH) (pg), mean corpuscular hemoglobin concentration (MCHC), red cell distribution width (RDW), white blood cells (WBCs) (10^9/L), neutrophils (NE) (%), lymphocytes (LY) (%), monocytes (MO) (%), eosinophils (EO) (%), basophils (BA) (%), and platelets (PLTs) (10^9/L), after exposure to free chrysin, ChrPCL/PVAMCs, or ChrPHB/PVAMCs, and without exposure to any agent. Briefly, the sample preparation was performed as follows: A 100 µL sample of whole blood was added to 900 µL of PBS. Then, either chrysin, ChrPCL/PVAMCs, or ChrPHB/PVAMCs were added to this diluted blood to achieve three concentrations: low, high, and very high (5, 80, and 200 µg·mL^−1, respectively). […]

[1] = test system: MDA-MB-231 human breast cancer cells; test: MTT cell viability assay; assay type: cell-based; settings: MDA-MB-231, 48 h, for MCs expressed as encapsulated chrysin content, read-out: IC50 (inhibitory concentration of chrysin for 50% viability)
Description: Epithelial human breast cancer MDA-MB-231 cells were grown in Dulbecco’s Modified Eagle′s—Medium (DMEM) growth medium (pH 7.4) supplemented with 10% Fetal Bovine Serum (FBS) and 50 µg·mL^−1 gentamycin at 37 °C in a 5% humidified CO2 incubator.
In the present study, the cell viability of MDA-MB-231 breast cancer line was evaluated via the MTT assay. The method relies on the conversion of the yellow 3-(4,5-dimethylthiazol-2-yl)-2,5-diphenyl tetrazolium bromide (MTT) to purple formazan crystals. The reduction of MTT is catalyzed by the mitochondrial dehydrogenase enzyme and is therefore a measure for cell viability. MDA-MB-231 cells were exposed to free chrysin, ChrPCL/PVAMCs, or ChrPHB/PVAMCs in their exponential phase of growth. More specifically, in a 96-well plate (Corning, NY, USA), a number of 1 × 10^4 cells/well were seeded, and after 24 h (80% confluency) they were treated with different concentrations of ChrPCL/PVAMCs or ChrPHB/PVAMCs ranging between 0–400 µg·mL^−1. Due to the different loading capacity of chrysin in each type of MCs, free chrysin (dissolved in DMSO) was added accordingly, in equal concentrations (µM), with the encapsulated chrysin in the MCs, as estimated in Section 3.5. […] Finally, a Synergy HTX BioTEK plate reader (with a reference wavelength of 630 nm) was used to determine the absorbance measurement at 545 nm. […]

- PLT values compared to negative control (human blood samples): significant decrease
- hematological parameters (RBCs, HGB, HCT, MCV, MCH, MCHC, RDW, WBCs, NE, LY, MO, EO, BA) compared to negative control (human blood samples): did not display significant deviation
- IC50 [1]: 112 µM
Compound: O=c1cc(-c2ccccc2)oc2cc(O)cc(O)c12 [chrysin, 5,7-dihydroxyflavone]
- hemolysis at 24 h, 5 µg·mL^−1 (Hemolysis assay; 5 µg·mL^−1): 1.2%
- hemolysis at 24 h, 20 µg·mL^−1 (Hemolysis assay; 20 µg·mL^−1): 2.1%
- hemolysis at 24 h, 40 µg·mL^−1 (Hemolysis assay; 40 µg·mL^−1): 2.7%
- hemolysis at 24 h, 60 µg·mL^−1 (Hemolysis assay; 60 µg·mL^−1): 3%
- hemolysis at 24 h, 80 µg·mL^−1 (Hemolysis assay; 80 µg·mL^−1): 3.5%
- hemolysis at 24 h, 100 µg·mL^−1 (Hemolysis assay; 100 µg·mL^−1): 6.8%
- hemolysis at 24 h, 200 µg·mL^−1 (Hemolysis assay; 200 µg·mL^−1): 7%
- hemolysis at 24 h, 300 µg·mL^−1 (Hemolysis assay; 300 µg·mL^−1): 7.3%
- hemolysis at 24 h, 400 µg·mL^−1 (Hemolysis assay; 400 µg·mL^−1): 7.9%
- hemolysis at 24 h, 500 µg·mL^−1 (Hemolysis assay; 500 µg·mL^−1): 8.2%
- hemoglobin release from RBCs (micrographs) (human RBCs; 500 µg·mL^−1): hemoglobin release from RBCs is obvious
- hemolytic activity (human RBCs; concentrations between 100 and 500 µg·mL^−1, diluted in 5% DMSO): greater than 5%
